From patent US4550179A, “N-(1-Allyl-2-pyrrolidinyl-methyl) 2-methoxy-4-amino-5-methylsulfamoyl benzamide” (Societe d'Etudes Scientifiques et Industrielles de l'Ile-de …, priority 1980, dated 1985)

Columns and labels:
isolated uterus = assay: serotonin-induced contraction of isolated uterus; conditions: isolated uterus of a rat, contraction produced by serotonin
Protocol: inhibited contraction of the isolated uterus of a rat, produced by serotonin. The contraction inhibiting dose 50 is of the order of 0.2 mg/l.

carotid arteries = assay: hypertensive response to blocking of carotid arteries, anaesthetised dog; format: in vivo; conditions: for % reduction relative to control hypertension (R): blocking of carotid arteries for 30 seconds
Description: (§1) The effects of the benzamide on the cardiovascular system were studied in a dog anaesthetised with chloralose, with the following results: […]

rat = assay: stereotypic movements of the rat caused by dopaminergic agonists (apomorphine or amphetamine); format: in vivo
histamine [1] = assay: interaction with histamine, arterial pressure of anaesthetised dog; format: in vivo
Description: (§2) Finally, researchers looked for interaction between the benzamide according to the invention and histamine, in the arterial pressure of an anaesthetised dog and the isolated ileum of a guinea pig.

mice = assay: duration of barbituric (pentobarbital) hypnosis; format: in vivo, mouse
Protocol: Adminis- Dose Time of hypnosis, mice treated
Product tration mg/kg Time of hypnosis, control mice
N.B. The barbiturate used is pentobarbital in a dose of 60 mg/kg given

nicotine = assay: hypertensive response to nicotine (orthosympathetic component), anaesthetised dog; format: in vivo; conditions: for % reduction of orthosympathetic component (R): nicotine
Description: as §1

migraine [2] = assay: open investigation in migraine out-patients; format: in vivo; conditions: 150 mg per day orally in 3 doses
Protocol: (3) An open investigation covering 80 patients, who were followed in out-patient treatment with 150 mg of benzamide per day, given orally in 3 doses: […]

serotonin [3] = assay: hypertensive response to serotonin, anaesthetised dog treated with chlorisondamine; format: in vivo
Description: (§3) The effects of the benzamide on the cardiovascular system were studied in a dog anaesthetised with chloralose, with the following results:
% inhibition of hypertension after […]

histamine [4] = assay: interaction with histamine, isolated ileum of guinea pig
Description: as §2

isolated ileum = assay: anticholinergic action in vitro on isolated ileum; conditions: isolated ileum of guinea pig
cerebral arteries = assay: cerebral haemodynamics of migraine patients (pulsatility of cerebral arteries); format: in vivo
Protocol: The first clinical pharmacological investigation consisted of exploring the cerebral haemodynamics of migraine patients by a non-invasive method, through recording the pulsatility of the cerebral arteries. […] Graphs were thus plotted after the benzamide according to the invention had been absorbed by migraine patients.
This is maintained under treatment with repeated doses (150 mg/day) given orally for 3 weeks.

mouse [5] = assay: spontaneous motility of mouse, WINTER & FLATAKER method; format: in vivo
Description: The researchers were looking for the effects of the benzamide on the central nervous system and particularly for any neuroleptic action.
(§4) Spontaneous motility of mouse:
(§5) inhibiting effect observed at
(§6) maximum dose administered
(§7) Adminis- WINTER & Activograph

serotonin [6] = assay: gastric ulcer producing effect of serotonin in the rat; format: in vivo; conditions: sc, subcutaneously, read-out: effective dose 50 (protection against gastric ulcer producing effect of serotonin)
noradrenalin = assay: hypertensive response to noradrenalin, anaesthetised dog; format: in vivo; conditions: for % reduction relative to control hypertension (R): noradrenalin
Description: as §3
Noradrenalin 0.5 R = 21%

mouse [7] = assay: analgesic action, pain caused by mechanical, chemical or heat stimulus; format: in vivo; conditions: single dose
Description: The analgesic action of the benzamide, in a single dose, is weak in respect of the pain caused in a mouse by a mechanical, chemical or heat stimulus.

[8] = acute toxicity (lethal dose 50); conditions: in vivo, male mouse
[9] = system: hypotensive response to acetylcholine or to excitation of the vagus nerve; assay: hypotensive response to acetylcholine or excitation of the vagus nerve, anaesthetised dog; format: in vivo
Description: as §1

migraine [10] = assay: comparative study with Pizotifene in migraine; format: in vivo; conditions: 17 migraine patients, 150 mg per day orally
Protocol: (2) A comparative study with Pizotifene, an anti-histamine and antiserotonin compound which is also used in the basic treatment for migraine.
The study covered 17 patients suffering true attacks of migraine of regular frequency, which thus enabled the effectiveness of the treatment to be assessed from the number and intensity of attacks during a period of one month.
The benzamide according to the invention was applied orally in a dose of 150 mg per day, in three times. The Pizotifene was also administered orally, with the progressive dosage recommended for the product (0.73 mg×1 for 3 days-0.73 mg×2 for 3 days-0.73 mg×3 for 24 days).
The patients were distributed at random between the treatments.

mouse [11] = assay: spontaneous motility of mouse, Activograph method; format: in vivo; conditions: read-out: inhibiting effect on spontaneous motility at maximum dose administered
Description: as §4, §5, §6, §7

migraine [12] = assay: comparative crossed double blind study versus oxetorone in migraine; format: in vivo; conditions: 63 migraine patients, 150 mg per day vs oxetorone 120 mg, 30 days
Description: (1) A comparative study, by a crossed double blind method, the reference product being oxetorone, which is medically known, applied to migraine. The study covered 63 migraine patients, the two treatments being applied for 30 days with an adequate interruption between sequences.

[13] = BATCH 1, 1 mg/kg I.V., serotonin 37.5 μg/kg I.V.
[14] = BATCH 1, 5 mg/kg I.V., serotonin 25 μg/kg I.V.
[15] = BATCH 2, 1 mg/kg I.V., serotonin 25 μg/kg I.V.
[16] = BATCH 2, 5 mg/kg I.V., serotonin 25 μg/kg I.V.

With `C=CCN1CCCC1CNC(=O)c1cc(S(=O)(=O)NC)c(N)cc1OC` (centres unmarked) [Benzamide according to the invention, N-(1-allyl-2-pyrrolidinyl-methyl)2-methoxy-4-amino-5-methylsulfamoyl benzamide] the “contraction inhibiting dose 50” value (isolated uterus) was ~0.2 mg/L, the “hypertensive responses caused by blocking the carotid arteries” value (carotid arteries; anaesthetised dog) was “reduces the hypertensive responses” and the “% reduction relative to control hypertension (R)” value (carotid arteries; cumulative dose 0.5 mg/kg I.V.) was 0%. The “% reduction relative to control hypertension (R)” value (carotid arteries; cumulative dose 1 mg/kg I.V.) was 30%, the “% reduction relative to control hypertension (R)” value (carotid arteries; cumulative dose 2 mg/kg I.V.) was 43% and the “% reduction relative to control hypertension (R)” value (carotid arteries; cumulative dose 4 mg/kg I.V.) was 48%. For the same molecule, the “% reduction relative to control hypertension (R)” value (carotid arteries; cumulative dose 8 mg/kg I.V.) was 86%, the “% reduction relative to control hypertension (R)” value (carotid arteries; cumulative dose 16 mg/kg I.V.) was 90% and the “% reduction relative to control hypertension (R)” value (carotid arteries; cumulative dose 32 mg/kg I.V.) was 100%. The “counteraction of stereotypic movements” value (rat) was “does not counteract the stereotypic movements of the rat”, the anti-histamine properties (histamine [1]) was “No anti-histamine properties were revealed” and the “Time of hypnosis, mice treated / Time of hypnosis, control mice” value (mice; I.P., 80 mg/kg, pentobarbital 60 mg/kg intraperitoneally) was 1.6. The “extension of the duration of barbituric hypnosis” value (mice; mouse, in vivo) was “does not extend the duration of barbituric hypnosis”, the “hypertensive responses caused by small doses of nicotine” value (nicotine; anaesthetised dog) was “reduces the hypertensive responses” and the “% reduction of orthosympathetic component (R)” value (nicotine; cumulative dose 0.5 mg/kg I.V.) was 0%. For the same molecule, the “% reduction of orthosympathetic component (R)” value (nicotine; cumulative dose 1 mg/kg I.V.) was 0%, the “% reduction of orthosympathetic component (R)” value (nicotine; cumulative dose 2 mg/kg I.V.) was 0% and the “% reduction of orthosympathetic component (R)” value (nicotine; cumulative dose 4 mg/kg I.V.) was 0%. For the same molecule, the “% reduction of orthosympathetic component (R)” value (nicotine; cumulative dose 8 mg/kg I.V.) was 0%, the “% reduction of orthosympathetic component (R)” value (nicotine; cumulative dose 16 mg/kg I.V.) was 49% and the “% reduction of orthosympathetic component (R)” value (nicotine; cumulative dose 32 mg/kg I.V.) was 79%. The “remission in particularly severe cases of "accompanied" migraines” value (migraine [2]) was “the remission transformed the social life of the patient”, the “General tolerance of the treatment” value (migraine [2]; 80 patients) was “very satisfactory” and the success (migraine [2]; 80 patients) was 79%. The “% inhibition of hypertension after 3 mn” value (serotonin [3]; [13]) was 22%, the “% inhibition of hypertension after 30 mn” value (serotonin [3]; [13]) was 8% and the “% inhibition of hypertension after 3 mn” value (serotonin [3]; [14]) was 62%. The “% inhibition of hypertension after 30 mn” value (serotonin [3]; [14]) was 63%, the “% inhibition of hypertension after 1 h” value (serotonin [3]; [14]) was 51% and the “% inhibition of hypertension after 1 h 30” value (serotonin [3]; [14]) was 51%. For the same molecule, the “% inhibition of hypertension after 2 h” value (serotonin [3]; [14]) was 40%, the “% inhibition of hypertension after 3 mn” value (serotonin [3]; [15]) was 36% and the “% inhibition of hypertension after 30 mn” value (serotonin [3]; [15]) was 11%. For the same molecule, the “% inhibition of hypertension after 1 h” value (serotonin [3]; [15]) was 0%, the “% inhibition of hypertension after 3 mn” value (serotonin [3]; [16]) was 78% and the “% inhibition of hypertension after 30 mn” value (serotonin [3]; [16]) was 65%. For the same molecule, the “% inhibition of hypertension after 1 h” value (serotonin [3]; [16]) was 48%, the “% inhibition of hypertension after 1 h 30” value (serotonin [3]; [16]) was 43% and the “% inhibition of hypertension after 2 h” value (serotonin [3]; [16]) was 33%. For the same molecule, the “% inhibition of hypertension after 3 h” value (serotonin [3]; BATCH 2, 5 mg/kg I.V., serotonin 25 μg/kg I.V., 3 h) was 33%, the “hypertensive response to serotonin” value (serotonin [3]; anaesthetised dog, chlorisondamine) was “reduces the hypertensive response to serotonin” and the anti-histamine properties (histamine [4]) was “No anti-histamine properties were revealed”. For the same molecule, the anticholinergic action (isolated ileum) was “no anticholinergic action”, the “maintenance of graph normalisation” value (cerebral arteries; repeated doses 150 mg/day orally for 3 weeks) was “maintained” and the “graph of cerebral artery pulsatility” value (cerebral arteries; single 100 mg intramuscular injection) was “the graph moves towards normalisation in 2 hours”. The inhibition at 80 mg/kg (mouse [5]; Mus musculus, ip, I.P., 80 mg/kg, WINTER & FLATAKER method, read-out: inhibiting effect on spontaneous motility at maximum dose administered) was 26%, the inhibition at 300 mg/kg (mouse [5]; Mus musculus, po, P.O., 300 mg/kg, WINTER & FLATAKER method, read-out: inhibiting effect on spontaneous motility at maximum dose administered) was 20% and the “reduction of spontaneous motility” value (mouse [5]; mouse, even in high doses) was “only very slightly reduces the spontaneous motility of the mouse”. The “depressive action (central nervous system)” value (mouse [5]; mouse, in vivo) was “very little depressive action”, the ED50 (serotonin [6]) was ~3 mg/kg and the “hypertensive responses caused by noradrenalin” value (noradrenalin; anaesthetised dog) was “reduces the hypertensive responses”. The “% reduction relative to control hypertension (R)” value (noradrenalin; cumulative dose 0.5 mg/kg I.V.) was 21%, the “% reduction relative to control hypertension (R)” value (noradrenalin; cumulative dose 1 mg/kg I.V.) was 13% and the “% reduction relative to control hypertension (R)” value (noradrenalin; cumulative dose 2 mg/kg I.V.) was 30%. The “% reduction relative to control hypertension (R)” value (noradrenalin; cumulative dose 4 mg/kg I.V.) was 30%, the “% reduction relative to control hypertension (R)” value (noradrenalin; cumulative dose 8 mg/kg I.V.) was 40% and the “% reduction relative to control hypertension (R)” value (noradrenalin; cumulative dose 16 mg/kg I.V.) was 49%. The “% reduction relative to control hypertension (R)” value (noradrenalin; cumulative dose 32 mg/kg I.V.) was 66%, the analgesic action (mouse [7]) was “weak” and the LD50 ([8]; ip, intraperitoneal (basis)) was 184 mg/kg. The LD50 ([8]; po, per os (basis)) was 3600 mg/kg, the LD50 ([8]; sc, subcutaneous (basis)) was 204 mg/kg and the LD50 ([8]; intravenous (basis)) was 44 mg/kg. For the same molecule, the “hypotensive response to acetylcholine or to excitation of the vagus nerve” value [9] was “does not change the hypotensive response”, the “effectiveness versus Pizotifene” value (migraine [10]) was “more effective than the second reference compound” and the inhibition at 80 mg/kg (mouse [11]; ip, I.P., 80 mg/kg) was 22%. The inhibition at 300 mg/kg (mouse [11]; po, P.O., 300 mg/kg) was 25% and the “therapeutic effectiveness and tolerance versus oxetorone” value (migraine [12]) was “statistically superior to oxetorone”.
